From PubChem BioAssay AID1963450 (Molecular Pharmacology Branch, DTP, NCI, 2024)
One block for each compound: values may come before it.

System: 556581-035-R-J1-PDC complex spheroid growth
Test: Anticancer human tumor 556581-035-R-J1-PDC patient-derived ovarian carcinoma cell line growth inhibition [Asc]
Conditions: for IC50: curve of first compound; for viability, T/C: stronger effect = lower value
Summary of the method: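 Spheroid model: tumor line + HUVEC + hMSC. Single agents and combinations; top conc. at/near clinical Cmax (10 microM if undetermined), half-log dilutions. DMSO stocks at 800-fold test concentration.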
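Note: spheroids exposed to agents for 7 days before viability read.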

IC50 (second compound 0.03 µM): 2.24 µM
IC50 (second compound 0.0949 µM): 1.53 µM
IC50 (second compound 0.3 µM): > 3 µM
IC50 (second compound 0.949 µM): 2.43 µM
IC50 (second compound 3 µM): 0.847 µM
SMILES: Cc1nc(N2CCC3(CC2)COC(C)C3N)c(CO)nc1Sc1ccnc(N)c1Cl (centres undefined) + CCN1C(C(=O)NC23CCC(C(=O)O)(CC2)CC3)C(c2cccc(Cl)c2F)C2(C(=O)Nc3cc(Cl)ccc32)C12CCCCC2
viability, T/C (second compound 0.03 µM, first compound 0.00949 µM): 84.7%
viability, T/C (second compound 0.03 µM, first compound 0.03 µM): 82.1%
viability, T/C (second compound 0.03 µM, first compound 0.0949 µM): 74%
viability, T/C (second compound 0.03 µM, first compound 0.3 µM): 62.4%
viability, T/C (second compound 0.03 µM, first compound 0.949 µM): 64.3%
viability, T/C (second compound 0.03 µM, first compound 3 µM): 45.1%
viability, T/C (second compound 0.0949 µM, first compound 0.00949 µM): 88.9%
viability, T/C (second compound 0.0949 µM, first compound 0.03 µM): 91.2%
viability, T/C (second compound 0.0949 µM, first compound 0.0949 µM): 88.1%
viability, T/C (second compound 0.0949 µM, first compound 0.3 µM): 66.5%
viability, T/C (second compound 0.0949 µM, first compound 0.949 µM): 60.6%
viability, T/C (second compound 0.0949 µM, first compound 3 µM): 39.4%
viability, T/C (second compound 0.3 µM, first compound 0.00949 µM): 85.7%
viability, T/C (second compound 0.3 µM, first compound 0.03 µM): 95.7%
viability, T/C (second compound 0.3 µM, first compound 0.0949 µM): 72.8%
viability, T/C (second compound 0.3 µM, first compound 0.3 µM): 73.7%
viability, T/C (second compound 0.3 µM, first compound 0.949 µM): 49.5%
viability, T/C (second compound 0.3 µM, first compound 3 µM): 58.9%
viability, T/C (second compound 0.949 µM, first compound 0.00949 µM): 93.4%
viability, T/C (second compound 0.949 µM, first compound 0.03 µM): 82.3%
viability, T/C (second compound 0.949 µM, first compound 0.0949 µM): 80.9%
viability, T/C (second compound 0.949 µM, first compound 0.3 µM): 68.4%
viability, T/C (second compound 0.949 µM, first compound 0.949 µM): 54.7%
viability, T/C (second compound 0.949 µM, first compound 3 µM): 49.4%
viability, T/C (second compound 3 µM, first compound 0.00949 µM): 88.4%
viability, T/C (second compound 3 µM, first compound 0.03 µM): 78.7%
viability, T/C (second compound 3 µM, first compound 0.0949 µM): 79.7%
viability, T/C (second compound 3 µM, first compound 0.3 µM): 60.8%
viability, T/C (second compound 3 µM, first compound 0.949 µM): 45.7%
viability, T/C (second compound 3 µM, first compound 3 µM): 50.6%

IC50 (second compound 0.00316 µM): > 10 µM
IC50 (second compound 0.01 µM): > 10 µM
IC50 (second compound 0.0316 µM): > 10 µM
IC50 (second compound 0.1 µM): > 10 µM
IC50 (second compound 0.316 µM): 6.87 µM
IC50 (second compound 1 µM): 5.29 µM
SMILES: C#Cc1c(F)ccc2cc(O)cc(-c3ncc4c(N5CC6CCC(C5)N6)nc(OCC56CCCN5CC(F)C6)nc4c3F)c12 (centres undefined) + CNC(C)C(=O)NC1CN(S(=O)(=O)c2cccc(S(=O)(=O)N3CCC4CCC(C(=O)NC(c5ccccc5)c5ccccc5)N4C(=O)C(NC(=O)C(C)NC)C3)c2)CCC2CCC(C(=O)NC(c3ccccc3)c3ccccc3)N2C1=O
viability, T/C (second compound 0.00316 µM, first compound 0.0316 µM): 101%
viability, T/C (second compound 0.00316 µM, first compound 0.1 µM): 103%
viability, T/C (second compound 0.00316 µM, first compound 0.316 µM): 103%
viability, T/C (second compound 0.00316 µM, first compound 1 µM): 99.6%
viability, T/C (second compound 0.00316 µM, first compound 3.16 µM): 98%
viability, T/C (second compound 0.00316 µM, first compound 10 µM): 86.8%
viability, T/C (second compound 0.01 µM, first compound 0.0316 µM): 105%
viability, T/C (second compound 0.01 µM, first compound 0.1 µM): 96.6%
viability, T/C (second compound 0.01 µM, first compound 0.316 µM): 100%
viability, T/C (second compound 0.01 µM, first compound 1 µM): 107%
viability, T/C (second compound 0.01 µM, first compound 3.16 µM): 87.6%
viability, T/C (second compound 0.01 µM, first compound 10 µM): 71%
viability, T/C (second compound 0.0316 µM, first compound 0.0316 µM): 96.7%
viability, T/C (second compound 0.0316 µM, first compound 0.1 µM): 95.9%
viability, T/C (second compound 0.0316 µM, first compound 0.316 µM): 88.5%
viability, T/C (second compound 0.0316 µM, first compound 1 µM): 87.7%
viability, T/C (second compound 0.0316 µM, first compound 3.16 µM): 87%
viability, T/C (second compound 0.0316 µM, first compound 10 µM): 60.5%
viability, T/C (second compound 0.1 µM, first compound 0.0316 µM): 92%
viability, T/C (second compound 0.1 µM, first compound 0.1 µM): 88.8%
viability, T/C (second compound 0.1 µM, first compound 0.316 µM): 76.8%
viability, T/C (second compound 0.1 µM, first compound 1 µM): 78%
viability, T/C (second compound 0.1 µM, first compound 3.16 µM): 77.9%
viability, T/C (second compound 0.1 µM, first compound 10 µM): 62%
viability, T/C (second compound 0.316 µM, first compound 0.0316 µM): 82.6%
viability, T/C (second compound 0.316 µM, first compound 0.1 µM): 65.4%
viability, T/C (second compound 0.316 µM, first compound 0.316 µM): 75.3%
viability, T/C (second compound 0.316 µM, first compound 1 µM): 66.4%
viability, T/C (second compound 0.316 µM, first compound 3.16 µM): 62.8%
viability, T/C (second compound 0.316 µM, first compound 10 µM): 44%
viability, T/C (second compound 1 µM, first compound 0.0316 µM): 65.2%
viability, T/C (second compound 1 µM, first compound 0.1 µM): 64.3%
viability, T/C (second compound 1 µM, first compound 0.316 µM): 65.6%
viability, T/C (second compound 1 µM, first compound 1 µM): 75.4%
viability, T/C (second compound 1 µM, first compound 3.16 µM): 57.9%
viability, T/C (second compound 1 µM, first compound 10 µM): 36.3%

IC50 (second compound 0.00316 µM): > 3 µM
IC50 (second compound 0.01 µM): > 3 µM
IC50 (second compound 0.0316 µM): 1.96 µM
IC50 (second compound 0.1 µM): 1.21 µM
IC50 (second compound 0.316 µM): 0.278 µM
IC50 (second compound 1 µM): 0.184 µM
SMILES: Cc1nc(N2CCC3(CC2)COC(C)C3N)c(CO)nc1Sc1ccnc(N)c1Cl (centres undefined) + CNC(C)C(=O)NC1CN(S(=O)(=O)c2cccc(S(=O)(=O)N3CCC4CCC(C(=O)NC(c5ccccc5)c5ccccc5)N4C(=O)C(NC(=O)C(C)NC)C3)c2)CCC2CCC(C(=O)NC(c3ccccc3)c3ccccc3)N2C1=O
viability, T/C (second compound 0.00316 µM, first compound 0.00949 µM): 107%
viability, T/C (second compound 0.00316 µM, first compound 0.03 µM): 95.9%
viability, T/C (second compound 0.00316 µM, first compound 0.0949 µM): 90.2%
viability, T/C (second compound 0.00316 µM, first compound 0.3 µM): 79.4%
viability, T/C (second compound 0.00316 µM, first compound 0.949 µM): 80%
viability, T/C (second compound 0.00316 µM, first compound 3 µM): 49.1%
viability, T/C (second compound 0.01 µM, first compound 0.00949 µM): 107%
viability, T/C (second compound 0.01 µM, first compound 0.03 µM): 94.5%
viability, T/C (second compound 0.01 µM, first compound 0.0949 µM): 76%
viability, T/C (second compound 0.01 µM, first compound 0.3 µM): 73.8%
viability, T/C (second compound 0.01 µM, first compound 0.949 µM): 64.9%
viability, T/C (second compound 0.01 µM, first compound 3 µM): 53.2%
viability, T/C (second compound 0.0316 µM, first compound 0.00949 µM): 91.4%
viability, T/C (second compound 0.0316 µM, first compound 0.03 µM): 81.8%
viability, T/C (second compound 0.0316 µM, first compound 0.0949 µM): 75.3%
viability, T/C (second compound 0.0316 µM, first compound 0.3 µM): 58.5%
viability, T/C (second compound 0.0316 µM, first compound 0.949 µM): 59%
viability, T/C (second compound 0.0316 µM, first compound 3 µM): 45.9%
viability, T/C (second compound 0.1 µM, first compound 0.00949 µM): 86.3%
viability, T/C (second compound 0.1 µM, first compound 0.03 µM): 78.9%
viability, T/C (second compound 0.1 µM, first compound 0.0949 µM): 71.8%
viability, T/C (second compound 0.1 µM, first compound 0.3 µM): 55.4%
viability, T/C (second compound 0.1 µM, first compound 0.949 µM): 58.4%
viability, T/C (second compound 0.1 µM, first compound 3 µM): 40.4%
viability, T/C (second compound 0.316 µM, first compound 0.00949 µM): 74.8%
viability, T/C (second compound 0.316 µM, first compound 0.03 µM): 63.4%
viability, T/C (second compound 0.316 µM, first compound 0.0949 µM): 59.4%
viability, T/C (second compound 0.316 µM, first compound 0.3 µM): 46.2%
viability, T/C (second compound 0.316 µM, first compound 0.949 µM): 46.3%
viability, T/C (second compound 0.316 µM, first compound 3 µM): 38.3%
viability, T/C (second compound 1 µM, first compound 0.00949 µM): 61.2%
viability, T/C (second compound 1 µM, first compound 0.03 µM): 61.9%
viability, T/C (second compound 1 µM, first compound 0.0949 µM): 51%
viability, T/C (second compound 1 µM, first compound 0.3 µM): 46.8%
viability, T/C (second compound 1 µM, first compound 0.949 µM): 40.8%
viability, T/C (second compound 1 µM, first compound 3 µM): 28.9%
